Measurements from patent publication US7071161B2, “Variants of corticotropin releasing hormone receptor Type 1 and uses thereof” (The University of Tennessee Research Corporation, priority 2001, dated 2006).

Legend:
CRH-R1 mRNA [1] = assay: CRH-R1 isoform expression by nested RT-PCR in treated HaCaT immortalized keratinocytes; type: cell-based, human; details: 24 hours, result in words
Procedure: (§1) In some experiments, SKMEL188, HaCaT and C4-1 cells were also treated with TPA, forskolin or a mixture of IBMX (3-isobutyl-1-methylxanthine) and dbcAMP (N6, 2′-O-dibutyryladenosine 3′:5′-cyclic monophosphate sodium) (all from Sigma). Briefly, the cells were transferred to 75 cm^2 flasks ( 10^6 cells/flask) and cultured for 24 hours in standard culture medium. Then the following compounds were added to the separate cultures: TPA (200 nM), forskolin (10^−5 M), IBMX (5×10^−4 M), and dbcAMP (10^−3 M). Controls were represented by untreated cultures. The cells were incubated for 24 hours, detached, collected by centrifugation, and dissolved in RNA isolation solution (Trizol reagent).
(§2) Total RNA was extracted using a Trizol isolation kit (Gibco-BRL, Gaithersburg, Md.). The synthesis of first-strand cDNA was performed using the Superscript preamplification system (Gibco-BRL). Five μg of total RNA per reaction was reverse transcribed using oligo(dT) as the primer.
(§3) Nested PCR was used to detect different CRH-R1 isoforms. The first round of amplification of the human CRH-R1 fragment spanning exons 2–7 was conducted using 2 μl of cDNA and primers P110: 5′-[…]-3′ (sense) (SEQ ID No. 15) and P111: 5′-[…]-3′ (antisense) (SEQ ID No. 16). An aliquot of the PCR mixture from the first round of amplification was transferred to a new tube, and a second round of PCR was conducted. […]

CRH-R1 mRNA [2] = assay: CRH-R1 isoform expression by nested RT-PCR in treated SKMEL188 melanoma cells; type: cell-based; details: human melanoma cells SKMEL188; 24 hours; result in words
Procedure: as §1, §2, §3

CRH-R1α = target: T1, CRH-R1α (Homo sapiens, UniProt P34998); assay: cAMP accumulation in CRF or urocortin-stimulated COS cells cotransfected with CRH-R1α and isoform e or h; type: cell-based; details: coexpression of the isoform with CRH-R1α, FIG. 7C
T1 construct: expressed in transfected cells; host or cells: COS cells, transient transfection with pCRFR1α
T1 sequence (P34998 24-415): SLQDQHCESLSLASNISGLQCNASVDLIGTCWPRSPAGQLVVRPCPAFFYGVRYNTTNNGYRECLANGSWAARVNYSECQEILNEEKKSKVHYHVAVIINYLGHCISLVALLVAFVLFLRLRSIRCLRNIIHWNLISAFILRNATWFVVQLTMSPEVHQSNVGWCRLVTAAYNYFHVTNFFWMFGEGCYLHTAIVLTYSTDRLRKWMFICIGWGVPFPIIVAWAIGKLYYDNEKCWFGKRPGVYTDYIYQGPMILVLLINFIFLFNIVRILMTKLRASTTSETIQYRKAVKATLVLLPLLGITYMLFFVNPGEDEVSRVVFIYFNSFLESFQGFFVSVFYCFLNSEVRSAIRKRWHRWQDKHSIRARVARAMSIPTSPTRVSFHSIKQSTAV
Procedure: COS cells were propagated in DMEM medium (GIBCO) supplemented with 10% Fetal Bovine serum and antibiotics (GIBCO). Ten thousand cells were routinely transfected in each well of opaque 96-well plate (Packard) by Lipophectamine (Invitrogen, Carlsbad, Calif.) according to the manufacturer's protocol.
Receptor isoforms e and h were tested for their ability to produce soluble forms of the CRH receptor that would affect the activity of the most prevalent CRH-R1α isoform. To allow detection by immunoblotting, a cDNA for the V5 protein was attached to the cDNA for the isoforms in the constructs. The constructs were thus transfected into COS cells and tested as to whether the isoform messages were translatable, and whether cotransfection of CRH-R1α with CRH-R1e or h affects the activity of CRH-R1α.
Cyclic AMP concentration was measured by a cAMP functional assay kit (Packard BioScience, Meriden, Conn.). Stimulated cells were washed 3 times by PBS and incubated for 1 hour in 25 μl of lysis buffer at room temperature. The signal was measured using a Fusion α instrument (Packard BioScience), and cAMP concentrations were recalculated from the standard curve.

For `CCCCCCCCCCCCCC(=O)O[C@@H]1[C@@H](C)[C@@]2(O)[C@@H](C=C(CO)C[C@]3(O)C(=O)C(C)=C[C@@H]23)[C@@H]2C(C)(C)[C@]12OC(C)=O` [TPA, phorbol 12-myristate 13-acetate], which “change of CRH-R1 splicing pattern versus untreated control” value (CRH-R1 mRNA [1]) is on record?
Its value is “induced insertion of a 110 bp fragment between exons 4 and 5 of CRH-R1”.

And the “change of CRH-R1 splicing pattern versus untreated control” value (CRH-R1 mRNA [2])?
Its value is “shifted the CRH-R1 splicing pattern from the CRH-R1d to the CRH-R1α isoform”.

B1: CRH-R1h: human CRH receptor type 1 isoform with cryptic exon between exons 4 and 5; truncated protein with CRH-binding domain only (protein, listed as Homo sapiens)
chain: MGGHPQLRLVKALLLLGLNPVSASLQDQHCESLSLASNISGLQCNASVDLIGTCWPRSPAGQLVVRPCPAFFYGVRYNTTNNGYRECLANGSWAARVNYSECQEILNEEEPGTQAQPGRAHRGGT
modifications: amino acid sequence of human CRH-R1h gene GenBank Accession No. AF374231
For B1, which “CRH or urocortin-stimulated cAMP accumulation mediated by CRF-R1α” value (CRH-R1α) is on record?
Its value is “inhibits”.

And the “CRH or urocortin-stimulated cAMP accumulation mediated by CRF-R1α” value (CRH-R1α; listed as CRF-R1h)?
The value was “stimulates”.
